Experimental data: paper PMC7053711, “A G protein–coupled receptor mediates neuropeptide-induced oocyte maturation in the jellyfish Clytia” (PLoS Biology, 2020)
“Also recorded” adds a separate entry of the source. Peptide text beside a SMILES is read from it.

Assays:
[1] = test system: MIHR mutant (n5-23, n5-13) isolated female gonads; assay: Gonad spawning assay, MIHR mutant isolated gonads; design: species or system Clytia hemisphaerica; details: for Gonads spawning (number) / Percentage of spawning gonads: 0,1uM WPRPa, MIH R K.O.
Description: We performed a series of oocyte maturation and spawning assays, comparing the responses of wild-type and MIHR mutant isolated gonads and oocytes to different stimuli (Fig 4).
Sexually mature MIHR mutant medusae from colonies n5-13 and n5-23 and wild-type medusae were cultured on the same day–night cycle. Individual gonads were dissected in the evening after afternoon spawning. To test the light response, one group of each was transferred to 100 μL MFSW in wells of 96-well plastic plates, covered overnight, and re-exposed to white light the following day. To test responses to MIH and cAMP, other groups of dissected gonads were cultured overnight in constant light, then transferred to 96-well plastic plates for two hours. MIH was added to wells as an equal volume of 200 nM WPRPamide (GenScript) stock in MFSW was added to give a final concentration of 100 nM. Alternatively, a stock of 20 mM bromo adenosine 3′,5′cyclic monophosphate (Br-cAMP–Fluka; Sigma Aldrich) in distilled water was added to give a final concentration of 4 mM. Gonads were washed after 5 minutes incubation in Br-cAMP. Oocyte maturation was scored after 30 minutes as germinal vesicle breakdown (GVBD), i.e., visible dissolution of the oocyte nuclear membrane upon entry into M phase, which in all cases was followed by spawning about 1 hour later.
(§1) Supplementary file pbio.3000614.s013.xlsx: S3 Data Numerical data corresponding to Fig 4A and 4C. The first tab collects all the raw data from 3 independent gonad spawning assays. Information corresponding to the Fisher exact tests is also shown. […] The means and standard deviations were used to prepare the graph in Fig 4C. Information corresponding to the Fisher exact tests is also shown. (XLSX) Click here for additional data file.

[2] = test system: fully grown oocytes isolated from WT gonads; assay: Oocyte maturation assay, wild-type isolated oocytes (GVBD); type: cell-based, Clytia hemisphaerica; details: for Oocyte maturation (number) / Percentage of Oocytes maturing: 0,1uM WPRPa, wild type
From the text: (§2) Fig 4 Oocyte maturation failure in MIHR mutant medusae. Oocyte maturation assays performed using isolated gonads (A, B) or isolated oocytes (C) from MIHR mutant jellyfish compared to WT. In A and C, bar heights represent mean percentages of 3 independent experiments and error bars show standard deviations. Total gonad or oocyte numbers for each treatment are indicated in gray. (A) Spawning response of isolated gonads from WT and n5-23 female medusae. Three treatments were compared as indicated above each panel: Light: light stimulation after incubation in the dark; MIH: treatment of light-maintained gonads with 100 nM WPRPamide; cAMP: treatment of light-maintained gonads with 4 mM Br-cAMP. […] Full datasets from three independent experiments are available in S3 Data. (B) Light microscope images illustrating gonads from an equivalent experiment performed with n5-13 female MIHR mutant medusae 120 minutes after the indicated treatments. Scale bar: 500 μm. […] Full datasets from 3 independent experiments are available in S3 Data. Br-cAMP, bromoadenosine 3′,5′-cyclic monophosphate; cAMP, cyclic adenosine monophosphate; KO, knockout; MIH, maturation-inducing hormone; MIHR, MIH receptor; WT, wild-type.
(§3) Fully grown oocytes were isolated manually from dissected gonads of wild-type and MIHR KO mutant jellyfish prepared as above. Maturation assays were performed in wells of 96-well plates or small plastic petri dishes lined with 2% agarose in MFSW. Spontaneous maturation occurs at a low frequency in control oocytes. To test MIH-induced maturation, 10 μL WPRPamide from 1 μM solution in MFSW was added to a final concentration of 100 nM. In some experiments, Br-cAMP from a 20 mM stock in H2O was used at a final concentration of 4 mM. GVBD was scored at 30 minutes, every 5 minutes, depending on experiments.
as §1

[3] = test system: fully grown oocytes isolated from MIHR mutant (n5-23) gonads; assay: Oocyte maturation assay, MIHR mutant isolated oocytes (GVBD); type: cell-based, Clytia hemisphaerica; details: for Oocyte maturation (number) / Percentage of Oocytes maturing: 0,1uM WPRPa, MIH R K.O.
From the text: as §2, §3, §1

[4] = WPRPa, pooled n=82, Fisher exact test vs WT significant at p < .01
[5] = 100 nM WPRPamide or 4 mM Br-cAMP
[6] = WPRPa, pooled n=47, Fisher exact test vs MIHR KO significant at p < .01
[7] = WPRPa, pooled n=46, Fisher exact test vs WT significant at p < .01

N=C(N)NCCC[C@H](NC(=O)[C@@H]1CCCN1C(=O)[C@@H](N)Cc1c[nH]c2ccccc12)C(=O)N1CCC[C@H]1C(N)=O [WPRPa] (H-WPRP-NH2; N-terminus assumed) was tested, and the “Gonads spawning (number)” value ([1]; replicate 1, total 29) was 0, the “Percentage of spawning gonads” value ([1]; replicate 1, total 29) was 0 and the “Gonads spawning (number)” value ([1]; replicate 2, total 29) was 0. The “Percentage of spawning gonads” value ([1]; replicate 2, total 29) was 0, the “Gonads spawning (number)” value ([1]; replicate 3, total 24) was 0 and the “Percentage of spawning gonads” value ([1]; replicate 3, total 24) was 0. For the same compound, the “Percentage of spawning gonads (summary)” value ([1]; WPRPa, MIHR K.O., summary of 3 replicates) was 0, the “Non-spawning gonads, MIHR KO NO” value [1, 4] was 82 and the “Spawning gonads, MIHR KO YES” value [1, 4] was 0. The “oocyte maturation and spawning of MIHR mutant gonads, MIH treatment” value ([1]; isolated MIHR mutant gonads, 100 nM WPRPamide) was “MIHR mutant gonads did not respond; also recorded: No oocyte maturation or spawning was observed”, the “Oocyte maturation (number)” value ([2]; replicate 1, total 13) was 13 and the “Percentage of Oocytes maturing” value ([2]; replicate 1, total 13) was 100.00. The “Oocyte maturation (number)” value ([2]; replicate 2, total 19) was 19, the “Percentage of Oocytes maturing” value ([2]; replicate 2, total 19) was 100.00 and the “Oocyte maturation (number)” value ([2]; replicate 3, total 15.00) was 15. For the same compound, the “Percentage of Oocytes maturing” value ([2]; replicate 3, total 15.00) was 100.00, the “maturation of isolated WT oocytes” value [2, 5] was “triggered maturation of WT oocytes” and the “time to visible GVBD, isolated WT oocytes” value [2, 5] was 20 to 30 min. The “Maturing oocytes, WT YES” value [2, 6] was 47, the “Non-maturing oocytes, WT NO” value [2, 6] was 0 and the “Oocyte maturation (number)” value ([3]; replicate 1, total 14) was 1. For the same compound, the “Percentage of Oocytes maturing” value ([3]; replicate 1, total 14) was 7.14, the “Oocyte maturation (number)” value ([3]; replicate 2, total 11) was 0 and the “Percentage of Oocytes maturing” value ([3]; replicate 2, total 11) was 0.00. The “Oocyte maturation (number)” value ([3]; replicate 3, total 21.00) was 2, the “Percentage of Oocytes maturing” value ([3]; replicate 3, total 21.00) was 9.52 and the “Maturing oocytes, MIHR KO YES” value [3, 7] was 3. The “Non-maturing oocytes, MIHR KO NO” value [3, 7] was 43.
